The text below walks through data of patent US7745446B2, “Pyrazolo[1,5-c]pyrimidines” (Bayer Schering Pharma Aktiengesellschaft, priority 2004, dated 2010).

One experiment has as its system MCF7 cells. As to the kind of experiment: Cellular proliferation/cytotoxicity assay (Alamar Blue), MCF7. The conditions noted are these: Homo sapiens, MCF7, 48 h, read-out: Anti-proliferative/cytotoxic activity: IC50 MCF7.
For the next experiment, the target named is T1, GST-ΔPH-Akt1 (Homo sapiens, UniProt P31749).
T1 construct: named GST-deltaPH-Akt1; 107-480aa; cloned in the pAcGl vector; GST (N); made in house; host or cells: SF9 insect cells (baculovirus vector pAcG1), co-expressed with PDK1
T1 sequence (P31749 107-480, stated change not applied): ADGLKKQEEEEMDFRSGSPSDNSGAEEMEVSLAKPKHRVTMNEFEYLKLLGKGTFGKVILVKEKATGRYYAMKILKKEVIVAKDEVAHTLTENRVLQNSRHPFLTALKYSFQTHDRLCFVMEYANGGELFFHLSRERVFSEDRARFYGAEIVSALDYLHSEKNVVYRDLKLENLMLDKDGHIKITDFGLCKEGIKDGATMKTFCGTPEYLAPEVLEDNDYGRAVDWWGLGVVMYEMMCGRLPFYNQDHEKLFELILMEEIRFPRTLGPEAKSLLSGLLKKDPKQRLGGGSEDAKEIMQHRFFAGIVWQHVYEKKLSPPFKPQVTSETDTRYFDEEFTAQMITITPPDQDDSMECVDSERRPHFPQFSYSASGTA
As to the kind of experiment: Biochemical ΔPH Akt1 assay (flashplate, 33P incorporation into histone 2B). The note with it: 100 nM ATP, histone 2B substrate; read-out: ΔPHAkt1 inhibition: IC50. The text has this: For the biochemical assay ΔPHAkt1 is used devoid of its PH domain as a GST fusion protein (named GST-deltaPH-Akt1; 107-480aa; cloned in the pAcGl vector (BD Biosciences Pharmingen)), co-expressed with PDK1 in SF9 insect cells. The protein is purified using glutathion-affinity chromatography by standard protocols.
In order to study the inhibition of Akt according to the invention, a flashplate-based assay has been developed.
The Akt1 assay is a biochemical assay using Akt1 devoid of its PH domain and co-expressed with PDK1 in insect cells. The GST-ΔPH-Akt1 assay is run in 96 well plates by incubating 100 ng/well GST-ΔPH-Akt1, 100 ng/well histone 2B (Roche, #223514) as substrate, 10 μl of compound of invention (test compounds were dissolved as 10 mM solutions in dimethylsulfoxide (DMSO) and subsequently diluted) and 100 nM ATP (including ^33P-ATP) in 100 μl of reaction buffer ([…], pH7,5; 3 mM MgCl2; 3 mM MnCl2; 3 μM Na-Orthovanadat; 1 mM DTT; 1 μg/ml PEG8000) for 80 minutes at 30° C. The reactions are terminated by adding 100 μl stopping buffer (2% H3PO4 for 5 minutes) and are washed 3 times by using washing buffer (0.9% NaCl). Relying on the incorporation of ^33P into the protein substrate histone 2B, the detection is based on the adhesion of the phosphorylated protein to the surface of scintillator-coated flash plates (NEN, USA; #SMP-200). This phosphorylation is measured by counting the plate for 60 sec. using a plate reader (Wallac Microbeta; Perkin Elmer, USA).

The target in a further experiment is T2, PKA (Homo sapiens, UniProt P17612).
T2 construct: His; purchased PanVera, USA #R3791; host or cells: E. coli
As to the kind of experiment: Biochemical PKA assay (flashplate). The conditions noted are these: 100 nM ATP; read-out: PKA inhibition: −log IC50 (converted). Here is the method:
For the biochemical PKA assay the catalytic subunit of PKA is expressed in E. coli as a His-tagged human recombinant protein and purified accordingly (PanVera, USA; #R3791).
In order to study the kinase inhibition activity of the compounds according to the invention, a flashplate-based assay has been developed for the serine/threonine kinase, PKA. The assay is run in 96 well plates by incubating 1 ng/well His-PKA (PanVera, USA; #R3791), 0.5 μM/well PKA peptide (#12-394; Upstate, USA) as substrate, 10 μl of compound of invention (test compounds were dissolved as 10 mM solutions in dimethylsulfoxide (DMSO) and subsequently diluted) and 100 nM ATP (including ^33P-ATP) in 100 μl of reaction buffer ([…], pH7,5; 3 mM MgCl2; 3 mM MnCl2; 3 μM Na-Orthovanadat; 1 mM DTT) for 80 minutes at 22° C. The reactions are stopped by adding 100 μl stopping buffer (2% H3PO4 for 5 minutes) and are washed 3 times by using washing buffer (200 μl 1×PBS). Relying on the incorporation of ^33P into the peptide substrate, the detection is based on the adhesion of the phosphorylated peptide to the surface of scintillator-coated Flash plates (Perkin Elmer, USA; #SMP-103). This phosphorylation is measured by counting the plate for 60 sec. using a plate reader (Wallac Microbeta; Perkin Elmer, USA). By using this method the IC50 of the PKA inhibition is determined.

A further experiment has as its system MDA-MB-468 cells. As to the kind of experiment: Cellular proliferation/cytotoxicity assay (Alamar Blue), MDA-MB-468. The conditions noted are these: Homo sapiens, MDA-MB-468, 48 h, read-out: Anti-proliferative/cytotoxic activity: IC50 MDA468. Background: Resazurin is reduced to fluorescent resorufin, in cell work by metabolically active cells.

Experimental for MCF7 cells: (§1) The anti-proliferative activity of the compounds as described herein, is evaluated using MCF7 and MDA-MB-468 (ATCC HTB-22 and HTB-132) cell lines and the Alamar Blue (Resazurin) cell viability assay (O'Brien et al. Eur J Biochem 267, 5421-5426, 2000). Resazurin is reduced to the fluorescent resorufin by cellular dehydrogenase activity, correlating with viable, proliferating cells. Test compounds are dissolved as 10 mM solutions in DMSO and subsequently diluted. MCF7 or MDA-MB-434 cells were seeded into 96 well flat bottom plates at a density of 10000 cells/well (MCF7) or 5000 cells/well (MDA-MB-468) in a volume of 200 μl/well. 24 hours after seeding, 1 μl each of the compound dilutions are added into each well of the 96 well plates. Each compound dilution is tested as at least as duplicates. Wells containing untreated control cells were filled with 200 μl DMEM containing 0.5% v:v DMSO. The cells are then incubated with the substances for 48 hours at 37° C. in a humidified atmosphere containing 5% carbon dioxide. To determine cell viability, 20 μl of a Resazurin solution (Sigma; 90 mg/l) are added. After 4 hours incubation at 37° C. the fluorescence is measured at an extinction of 544 nm and an emission of 590 nm (Wallac Victor2; Perkin Elmer, USA). For the calculation of the cell viability the emission value from untreated cells is set as 100% viability and the emission rates of treated cells are set in relation to the values of untreated cells. Viabilities are expressed as % values. The corresponding IC50 values of the compounds for cytotoxic activity are determined from the concentration-effect curves by means of non-linear regression. The analysis of the data is performed using a biostatistical program (GraphPad Prism, USA).
Experimental for MDA-MB-468 cells: as §1

For `O=C(Nc1ccc(Nc2nc(-c3cccc4c3oc3ccccc34)cc3ccnn23)cc1)c1ccc2c(c1)CNCC2` [Example 35, 1,2,3,4-Tetrahydro-isoquinoline-7-carboxylic acid [4-(5-dibenzofuran-4-yl-pyrazolo[1,5-c]pyrimidin-7-ylamino)-phenyl]-amide], the IC50 in the experiment with MCF7 cells was ≤ 16.9 µM; at GST-ΔPH-Akt1 it was ≤ 1.75 µM; on PKA, > 100 µM; in the experiment with MDA-MB-468 cells, ≤ 13.6 µM.
For `NCc1ccc(C(=O)Nc2ccc(Nc3nc(-c4cccc5c4oc4ccccc45)cc4ccnn34)cc2)nc1` [Example 65, 5-Aminomethyl-pyridine-2-carboxylic acid [4-(5-dibenzofuran-4-yl-pyrazolo[1,5-c]pyrimidin-7-ylamino)-phenyl]-amide] the same measures were ≤ 16.9 µM, ≤ 1.75 µM, 6.31 to 100 µM and ≤ 13.6 µM.
Taken in the same sequence, the figures for `NCc1ccc(C(=O)Nc2ccc(Nc3nc(-c4ccc(-c5ccccc5F)cc4)cc4ccnn34)cc2)cc1` [Example 69, 4-Aminomethyl-N-{4-[5-(2′-fluoro-biphenyl-4-yl)-pyrazolo[1,5-c]pyrimidin-7-ylamino]-phenyl}-benzamide] were ≤ 16.9 µM, ≤ 1.75 µM, 6.31 to 100 µM and ≤ 13.6 µM.
For `NCc1ccc(C(=O)Nc2ccc(Nc3nc(-c4ccc5cc(OCc6ccccc6)ccc5c4)cc4ccnn34)cc2)cc1` [Example 42, 4-Aminomethyl-N-{4-[5-(6-benzyloxy-naphthalen-2-yl)-pyrazolo[1,5-c]pyrimidin-7-ylamino]-phenyl}-benzamide] the same measures were ≤ 16.9 µM, ≤ 1.75 µM, > 100 µM and ≤ 13.6 µM.
Turning to `O=C(Nc1ccc(Nc2nc(-c3cccc4c3oc3ccccc34)cc3ccnn23)cc1)c1ccc2c(c1)CCNC2` [Example 58, 1,2,3,4-Tetrahydro-isoquinoline-6-carboxylic acid [4-(5-dibenzofuran-4-yl-pyrazolo[1,5-c]pyrimidin-7-ylamino)-phenyl]-amide], the IC50 was ≤ 16.9 µM in the experiment with MCF7 cells, ≤ 1.75 µM at GST-ΔPH-Akt1, > 100 µM at PKA and ≤ 13.6 µM in the experiment on MDA-MB-468 cells.
Take `O=C(Nc1cccc(Nc2nc(-c3cccc4c3oc3ccccc34)cc3ccnn23)c1)c1ccc2c(c1)CNCC2` [Example 34, 1,2,3,4-Tetrahydro-isoquinoline-7-carboxylic acid [3-(5-dibenzofuran-4-yl-pyrazolo[1,5-c]pyrimidin-7-ylamino)-phenyl]-amide]: the IC50 in the experiment on MCF7 cells was ≤ 16.9 µM; on GST-ΔPH-Akt1, ≤ 1.75 µM; on PKA, 6.31 to 100 µM; in the experiment on MDA-MB-468 cells, ≤ 13.6 µM.
Taken in the same sequence, the figures for `NCc1ccc(C(=O)Nc2ccc(Nc3nc(-c4cccc5c4oc4ccccc45)cc4ccnn34)cc2)o1` [Example 38, 5-Aminomethyl-furan-2-carboxylic acid [4-(5-dibenzofuran-4-yl-pyrazolo[1,5-c]pyrimidin-7-ylamino)-phenyl]-amide] were ≤ 16.9 µM, ≤ 1.75 µM, > 100 µM and ≤ 13.6 µM.
Regarding `NCCc1ccc(C(=O)Nc2ccc(Nc3nc(-c4cccc5c4oc4ccccc45)cc4ccnn34)cc2)cc1` [Example 23, 4-(2-Amino-ethyl)-N-[4-(5-dibenzofuran-4-yl-pyrazolo[1,5-c]pyrimidin-7-ylamino)-phenyl]-benzamide], the IC50 is ≤ 16.9 µM with MCF7 cells, ≤ 1.75 µM on GST-ΔPH-Akt1, > 100 µM at PKA and ≤ 13.6 µM in the experiment on MDA-MB-468 cells.
`COc1ccc(-c2ccc(-c3cc4ccnn4c(Nc4ccc(NC(=O)c5ccc(CN)cc5)cc4)n3)cc2)cc1` [Example 55, 4-Aminomethyl-N-{4-[5-(4′-methoxy-biphenyl-4-yl)-pyrazolo[1,5-c]pyrimidin-7-ylamino]-phenyl}-benzamide]: the IC50 in the experiment on MCF7 cells was ≤ 16.9 µM; at GST-ΔPH-Akt1 it was ≤ 1.75 µM; at PKA, > 100 µM; in the experiment on MDA-MB-468 cells, ≤ 13.6 µM.
For `NCc1ccc(C(=O)Nc2cccc(Nc3nc(-c4cccc5c4oc4ccccc45)cc4ccnn34)c2)c(F)c1` [Example 27, 4-Aminomethyl-N-[3-(5-dibenzofuran-4-yl-pyrazolo[1,5-c]pyrimidin-7-ylamino)-phenyl]-2-fluoro-benzamide] the same measures were ≤ 16.9 µM, ≤ 1.75 µM, > 100 µM and ≤ 13.6 µM.
For `NCc1ccnc(C(=O)Nc2ccc(Nc3nc(-c4cccc5c4oc4ccccc45)cc4ccnn34)cc2)c1` [Example 53, 4-Aminomethyl-pyridine-2-carboxylic acid [4-(5-dibenzofuran-4-yl-pyrazolo[1,5-c]pyrimidin-7-ylamino)-phenyl]-amide] the same measures were ≤ 16.9 µM, ≤ 1.75 µM, > 100 µM and ≤ 13.6 µM.
On to `NCc1ccc(C(=O)Nc2ccc(Nc3nc(-c4ccc(I)cc4)cc4ccnn34)cc2)cc1` [Example 68, 4-Aminomethyl-N-{4-[5-(4-iodo-phenyl)-pyrazolo[1,5-c]pyrimidin-7-ylamino]-phenyl}-benzamide], for which the IC50 with MCF7 cells was ≤ 16.9 µM; on GST-ΔPH-Akt1, ≤ 1.75 µM; on PKA it was 6.31 to 100 µM; in the experiment with MDA-MB-468 cells, ≤ 13.6 µM.
Regarding `NCc1ccc(C(=O)Nc2ccc(Nc3nc(-c4ccc(-c5cccc(F)c5)cc4)cc4ccnn34)cc2)cc1` [Example 70, 4-Aminomethyl-N-{4-[5-(3′-fluoro-biphenyl-4-yl)-pyrazolo[1,5-c]pyrimidin-7-ylamino]-phenyl}-benzamide], the IC50 is ≤ 16.9 µM with MCF7 cells, ≤ 1.75 µM at GST-ΔPH-Akt1, 6.31 to 100 µM at PKA and ≤ 13.6 µM in the experiment on MDA-MB-468 cells.
On to `NCc1ccc(C(=O)Nc2ccc(Nc3nc(-c4cccc5c4oc4ccccc45)cc4ccnn34)cc2)c(F)c1` [Example 28, 4-Aminomethyl-N-[4-(5-dibenzofuran-4-yl-pyrazolo[1,5-c]pyrimidin-7-ylamino)-phenyl]-2-fluoro-benzamide], for which the IC50 is ≤ 16.9 µM with MCF7 cells, ≤ 1.75 µM on GST-ΔPH-Akt1, > 100 µM at PKA and ≤ 13.6 µM in the experiment on MDA-MB-468 cells.
Taken in the same sequence, the figures for `CC(C)(N)c1ccc(C(=O)Nc2ccc(Nc3nc(-c4cccc5c4oc4ccccc45)cc4ccnn34)cc2)cc1` [Example 39, 4-(1-Amino-1-methyl-ethyl)-N-[4-(5-dibenzofuran-4-yl-pyrazolo[1,5-c]pyrimidin-7-ylamino)-phenyl]-benzamide] were ≤ 16.9 µM, ≤ 1.75 µM, 6.31 to 100 µM and ≤ 13.6 µM.
As for `NCc1ccc(C(=O)Nc2ccc(Nc3nc(-c4cccc5c4oc4ccccc45)cc4ccnn34)cc2)cn1` [Example 29, 6-Aminomethyl-N-[4-(5-dibenzofuran-4-yl-pyrazolo[1,5-c]pyrimidin-7-ylamino)-phenyl]-nicotinamide], the IC50 is ≤ 16.9 µM with MCF7 cells, ≤ 1.75 µM at GST-ΔPH-Akt1, > 100 µM on PKA and ≤ 13.6 µM with MDA-MB-468 cells.
In the case of `COCCOc1ccc2cc(-c3cc4ccnn4c(Nc4ccc(NC(=O)c5ccc(CN)cc5)cc4)n3)ccc2c1` [Example 47, 4-Aminomethyl-N-(4-{5-[6-(2-methoxy-ethoxy)-naphthalen-2-yl]-pyrazolo[1,5-c]pyrimidin-7-ylamino}-phenyl)-benzamide], the IC50 in the experiment with MCF7 cells was ≤ 16.9 µM; at GST-ΔPH-Akt1 it was ≤ 1.75 µM; at PKA it was > 100 µM; in the experiment with MDA-MB-468 cells, ≤ 13.6 µM.
